In PubChem BioAssay AID463204 (Broad Institute, 2010) one finds AC50 data, which are given here for 90 molecules.

This experiment relates to S. cerevisiae Mot1-301 ts growth rescue, BacTiter-Glo ATP luminescence. In words: growth rescue of Mot1-301 ts yeast, confirmation, SUMOylation pathway inhibitor project, whole organism, S. cerevisiae, Mot1-301 ts mutant, luminescence, dose retest (AID 463204).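 Further: growth at restrictive 38.5 degrees C of Mot1-301 OY566 strain; actives raise luminescence by restoring growth of the ts mutant at high temperature.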

The source made the active and inactive calls.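 How the source made its calls: active means AC50 no more than ten times the top concentration tested, that is within one log above it; inconclusive means flat curve fit with activity between 30% and 70%, or invalid poor fit; inactive means AC50 beyond ten times the top tested dose.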 Residues, ends and D or L forms follow the SMILES beside them.

Consider `COC(=O)c1ccc(Cl)c(NC(=O)CN(c2ccc(OC)c(OC)c2)S(C)(=O)=O)c1`, for which the AC50 was > 42 µM (inactive).

As for `CC1CCCC(N2C(=O)NC(NC(=O)c3ccco3)(C(F)(F)F)C2=O)C1C` (stereo not given), the AC50 is > 42 µM (inactive).

For `CCC(C)NCCOc1ccccc1C` (stereo not given), the AC50 is > 42 µM (inactive).

For `CC(=O)NC(CC(C)C)C(=O)NC(CO)C(=O)NC(CCC(=O)O)C(=O)NC(C)C(=O)NC(CC(C)C)C(N)=O` (stereo not given) (Ac-LSEAL-NH2; configuration not given here), the AC50 is > 42 µM (inactive).

Turning to `O=C(CCSc1nnnn1-c1ccccc1)N1CCOCC1`, the AC50 was > 42 µM (inactive).

Take `CC(=O)c1cccc(CN2CCCC(N3CCN(c4ccccc4F)CC3)C2)c1` (stereo not given): the AC50 is > 42 µM (inactive).

`C[C@H]1CN=C(Nc2ccccc2)N1CCC1CCCC1`: the AC50 is > 42 µM (inactive).

With `O=C(Nc1ccc(F)cc1)c1ccc(CSc2ccccc2)o1`, the AC50 is > 42 µM (inactive).

Regarding `Cc1ccc(C(C(=O)NCC2CCCO2)N(Cc2ccccc2F)C(=O)Cn2nnc(-c3cccs3)n2)cc1` (stereo not given), the AC50 was > 42 µM (inactive).

On to `CNS(=O)(=O)c1cccc(C(=O)NCC2(N3CCCCC3)CCCCC2)c1`, for which the AC50 was 39.2 µM.

Regarding `CCOc1ccc(CN(C)C(C)C(=O)NCc2ccccc2)cc1` (stereo not given), the AC50 is > 42 µM (inactive).

For the molecule `O=C(O)c1ccc(CNC(=O)c2ccccc2NC(=O)c2ccc([N+](=O)[O-])cc2)cc1`, the AC50 was > 42 µM (inactive).

With `O=C(CN1CCN(c2nc(-c3ccccc3)cs2)CC1)NNC(=O)c1ccc(Br)cc1`, the AC50 is > 42 µM (inactive).

`COC(=O)/C=C\C(=O)Nc1cccc([N+](=O)[O-])c1`: the AC50 is 2.95 µM.

For the molecule `COc1ccc(-c2c(C)nn3c(C)cc(C)nc23)cc1`, the AC50 is > 42 µM (inactive).

Consider `c1ccc(-c2nc(N3CCOCC3)c3ccccc3n2)nc1`, for which the AC50 is > 42 µM (inactive).

As to `CCOC(=O)c1cc2sc(C)cc2n1CC(=O)Nc1ccc2c(c1)OCCO2`, the AC50 was > 42 µM (inactive).

For the molecule `CSc1ncccc1C(=O)NC1CCCc2c1cnn2-c1ccc(C)c(C)c1` (stereo not given), the AC50 was > 42 µM (inactive).

For `Cc1cc(S(=O)(=O)NCC(C)C)ccc1OCC(=O)N1CCOCC1`, the AC50 was > 42 µM (inactive).

In the case of `CC(Oc1ccccc1[N+](=O)[O-])C(=O)N/N=C/c1ccoc1` (stereo not given), the AC50 is > 42 µM (inactive).

As for `Cn1nc(C(C)(C)C)c([N+](=O)[O-])c1C(=O)Nc1ccccc1`, the AC50 is > 42 µM (inactive).

Take `CC(C)N=C(NS(=O)(=O)NC(=O)c1ccccc1)c1ccccc1`: the AC50 is > 42 µM (inactive).

Consider `CCNC(=O)NC1c2ccccc2CSc2ccccc21` (stereo not given), for which the AC50 was > 42 µM (inactive).

With `Cc1ccc(NC(=O)NNC(=O)Cn2nc(-c3ccccc3)c(-c3ccccc3)c(C#N)c2=O)cc1`, the AC50 is > 42 µM (inactive).

On to `COc1ccc(NC(=S)Nc2ccccc2OC)c(OC)c1`, for which the AC50 was > 42 µM (inactive).

Turning to `CC1CCN(CCCCOc2ccc(F)cc2)CC1`, the AC50 was > 42 µM (inactive).

Turning to `CCNCc1nc2cc(Cl)ccc2c(=O)[nH]1`, the AC50 was > 42 µM (inactive).

On to `c1coc(C2OCC3(CO2)COC(c2ccco2)OC3)c1` (stereo not given), for which the AC50 is > 42 µM (inactive).

Consider `CCOc1ccc(NC(=O)CSc2nnc(Cc3csc(C)n3)o2)cc1`, for which the AC50 was > 42 µM (inactive).

On to `CC1=Nc2ccccc2/C1=C\c1nc(-c2ccccc2)oc1O`, for which the AC50 was > 42 µM (inactive).

Regarding `O=C(NCc1csc(-c2cccs2)n1)Nc1ccc(F)cc1F`, the AC50 is > 42 µM (inactive).

Consider `CCCNC(=O)COC(=O)CCC(=O)c1cccs1`, for which the AC50 was > 42 µM (inactive).

For `Cc1ccc(S(=O)(=O)NCC(=O)OCC(=O)c2ccc(Br)s2)cc1`, the AC50 was > 42 µM (inactive).

On to `COC(=O)c1sc2ccccc2c1NC(=O)c1ccc(S(=O)(=O)N2CCCC(C)C2)cc1` (stereo not given), for which the AC50 is > 42 µM (inactive).

`Cc1ccc(C(C(=O)Nc2ccc3c(c2)OCO3)N(C)C(=O)/C=C\c2ccc3c(c2)OCO3)cc1` (stereo not given): the AC50 is > 42 µM (inactive).

Consider `COc1ccc(NC2=C(C)C(=O)CC2)cc1`, for which the AC50 was > 42 µM (inactive).

Take `O=C(O)CSc1ncnc2sc(-c3ccccc3)cc12`: the AC50 is > 42 µM (inactive).

As for `CCC(c1nnnn1C1CCCC1)N1CCN(c2cccc(OC)c2)CC1` (stereo not given), the AC50 is > 21 µM (inactive).

With `N#CCN(N=Nc1ccccc1)c1ccccc1`, the AC50 is > 42 µM (inactive).

On to `CNC(=O)c1ccccc1NC(=O)c1c(O)c2c([nH]c1=O)CCCC2`, for which the AC50 was > 42 µM (inactive).

For `Cc1ccc(CNC(=O)CCNS(=O)(=O)c2cccs2)cc1`, the AC50 was > 42 µM (inactive).

`O=C(CSc1nc(O)cc(=O)n1-c1ccccc1)NC1CCCCC1`: the AC50 is > 42 µM (inactive).

On to `COc1ccc(N(CC(=O)NCc2ccc(C)cc2)S(=O)(=O)c2c(C)nn(C)c2C)cc1`, for which the AC50 is > 42 µM (inactive).

As for `CC(C)C(=O)Nc1cccc(-c2nc3ncccc3o2)c1`, the AC50 was > 42 µM (inactive).

Turning to `CN(c1ccccc1)c1ccc(/C=C/[N+](=O)[O-])cc1`, the AC50 was 5.85 µM.

`[N-]=[N+]=NCCN1CCC(O)CCC1=O` (stereo not given): the AC50 is > 42 µM (inactive).

In the case of `O=C(NC1CCCCC1)C(c1ccncc1)N(Cc1ccc2c(c1)OCO2)C(=O)C(F)(F)F` (stereo not given), the AC50 is > 42 µM (inactive).

`CC1=Nc2ccc(C)cc2N(Cc2ccccc2)C(=O)C1`: the AC50 was > 42 µM (inactive).

In the case of `CN1/C(=C\C(=O)COC(=O)c2ccc([N+](=O)[O-])o2)C(C)(C)c2ccccc21`, the concentration at half-maximal activity (AC50) was 13.6 µM.

With `Cc1ccc(Cn2c(NCCc3ccccc3)nc3c2c(=O)n(C)c(=O)n3C)cc1`, the AC50 was > 42 µM (inactive).

Turning to `CN(C)C(/C=C/Nc1cccc(Br)c1)=C(C#N)C#N`, the AC50 was > 42 µM (inactive).

As to `COc1ccc(-c2csc(Nc3cc(C)ccn3)n2)cc1C`, the AC50 was > 42 µM (inactive).

As for `Oc1c(Br)cc(Br)cc1C=Nc1ccc2[nH]ncc2c1`, the AC50 is 4.76 µM.

For the molecule `CCOc1ccc(C(=O)NNC2CC(=O)N(CCc3ccccc3)C2=O)cc1OC` (stereo not given), the AC50 is > 42 µM (inactive).

Take `COc1ccc(NC(=S)NC(=O)C2CCC2)cc1`: the AC50 is > 42 µM (inactive).

Take `O=[N+]([O-])c1cc([N+](=O)[O-])c2cc3ccccc3nc2c1`: the AC50 is 2.63 µM.

Take `CCCc1cc(=O)oc2c3c(c4c(c12)OC(C)(C)C=C4)OC(C)C(C)C3O` (stereo not given): the AC50 is > 42 µM (inactive).

For the molecule `NC(=O)c1cc(S(=O)(=O)N2CCCC2)ccc1OCc1ccc(F)cc1`, the AC50 is > 42 µM (inactive).

Turning to `CCOc1ccc(S(=O)(=O)N2CCN(C(=O)CN3C(=O)NC4(CCCC4)C3=O)CC2)cc1`, the AC50 was > 42 µM (inactive).

Consider `COc1ccc(C(=O)N(CCc2ccccc2)Cc2ccccc2)c(OC)n1`, for which the AC50 was > 42 µM (inactive).

For `COc1ccc(NC(=O)c2ccc(COc3ccccc3OC)o2)cc1OC`, the AC50 is > 42 µM (inactive).

`COc1ccc([N+](=O)[O-])c2c(=O)ccoc12`: the AC50 was > 42 µM (inactive).

`O=c1cnc2cc([N+](=O)[O-])ccc2[nH]1`: the AC50 was > 42 µM (inactive).

As for `Cc1ccc(S(=O)(=O)N2[C@@H](c3ccc(Br)cc3)C(C(=O)O)=C[C@H]2CC2CCCC2)cc1`, the half-maximal activity concentration (AC50) is 3.51 µM.

Consider `O=c1c2c3c(sc2n2cnnc2n1-c1ccccc1)N(Cc1ccccc1)CCC3`, for which the AC50 was > 42 µM (inactive).

As to `COc1cccc(Nc2nc(C)nc3c2oc2ccccc23)c1`, the AC50 was > 42 µM (inactive).

For `CC(C)N(C(=S)Nc1cccc(S(=O)(=O)N(C)C)c1)c1ccccc1`, the AC50 is > 42 µM (inactive).

As to `COc1ccc(NC(=O)CCCc2ccccc2)cc1OC`, the AC50 is > 42 µM (inactive).

On to `CC1=C(C)CS(=O)N(S(=O)(=O)c2ccc(Cl)cc2)C1` (stereo not given), for which the AC50 is 3.41 µM.

As for `Nc1cc(C(=O)OCC(=O)N2CCOCC2)ccc1Cl`, the AC50 was > 42 µM (inactive).

For the molecule `O=S1(=O)C=C(Sc2nnc(-c3ccccc3)o2)c2ccccc21`, the half-maximal activity concentration (AC50) was 1.47 µM.

On to `Cc1nc(-c2cccc(S(=O)(=O)N3CCOCC3)c2)cs1`, for which the AC50 is > 42 µM (inactive).

`COC(=O)c1ccccc1NC(=O)CSc1nnnn1CC(=O)O`: the AC50 was > 42 µM (inactive).

Consider `CC(C)c1ccc(-c2cc(C(=O)N3CCOCC3)c3cc(Br)ccc3n2)cc1`, for which the AC50 is > 42 µM (inactive).

Turning to `CC(=O)Nc1cccc(NC(=S)Nc2ccc(F)cc2F)c1`, the AC50 was > 42 µM (inactive).

Take `O=S(=O)(NCc1ccco1)c1ccc2ccccc2c1`: the AC50 is > 42 µM (inactive).

As to `COCCCNC(=O)c1cc2cc([N+](=O)[O-])cc(OC)c2oc1=O`, the AC50 was > 42 µM (inactive).

`CCOc1ccc(C(=O)Nc2ccc(C(F)(F)F)n(C)c2=O)cc1`: the AC50 was > 42 µM (inactive).

Turning to `Cc1ccc(CNC(=O)CCn2cc(-c3ccc(C)cc3)nc2CCN)cc1`, the AC50 was > 42 µM (inactive).

Turning to `CC(N=C(NC#N)Nc1ccncc1)C(C)(C)C` (stereo not given), the AC50 was > 42 µM (inactive).

Take `CN(C)CCNC(=O)c1scc2c1CCCC2`: the concentration at half-maximal activity (AC50) is 29.2 µM.

In the case of `COC(=O)C12CCC3(SCCS3)C(C(=O)OC)(CCC13SCCS3)C2`, the AC50 is 7.24 µM.

Regarding `Cc1cc2c(C)ccc(C)c2nc1SCC(=O)c1cccs1`, the AC50 is > 42 µM (inactive).

`C=CCNC(=O)NC(=O)COC(=O)CCCSc1nc2ccccc2[nH]1`: the AC50 was > 42 µM (inactive).

In the case of `COC(=O)c1cn(C(=O)c2cccc3ccccc23)c2ccccc12`, the AC50 was > 42 µM (inactive).

Regarding `CN(C)CC/C=C1\c2ccccc2Sc2ccc(Cl)cc21`, the AC50 was > 42 µM (inactive).

Consider `CS(=O)(=O)N1CCCC(C(=O)NCc2ccco2)C1` (stereo not given), for which the AC50 is > 42 µM (inactive).

As for `CCn1c(N2CCN(C(=O)C34CC5CC(CC(C5)C3)C4)CC2)nc2ccccc21`, the AC50 is > 42 µM (inactive).

As for `Cn1nc(C(=O)NCCc2ccc(Cl)cc2)c2c1-c1ccccc1S(=O)(=O)C2`, the AC50 was > 42 µM (inactive).

For the molecule `COc1cc2ccccc2cc1C(=O)Nc1ccc(CN2CCOCC2)cc1`, the AC50 is > 42 µM (inactive).
